# Measurements from PubChem BioAssay AID1964 (Broad Institute, 2009).
# Inconclusive results are not listed. Active and inactive are the calls of the source. No rule for the calls is given here.
# Biological target: RNA-binding protein pos-1 (Caenorhabditis elegans) (UniProt G5EF15)
# Experiment: inhibitors of POS-1/mex-3 RNA binding, dose response, biochemical, fluorescence polarization (AID 1964)
# Details: POS-1/mex-3 RNA fluorescence polarization
# RNA-binding protein pos-1 (Caenorhabditis elegans), sequence (G5EF15 whole entry, looked up): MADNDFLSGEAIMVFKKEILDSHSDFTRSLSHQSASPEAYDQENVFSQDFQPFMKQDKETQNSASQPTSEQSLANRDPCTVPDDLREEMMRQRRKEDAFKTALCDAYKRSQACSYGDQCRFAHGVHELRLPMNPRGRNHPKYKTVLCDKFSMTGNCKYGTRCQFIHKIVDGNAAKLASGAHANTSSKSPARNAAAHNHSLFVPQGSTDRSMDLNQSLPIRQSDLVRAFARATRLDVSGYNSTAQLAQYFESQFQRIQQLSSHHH
row,SMILES,IC50
1,Cc1cc(/C=C2/C(=O)NC(=O)N(Cc3ccco3)C2=O)c(C)n1-c1ccc(C(=O)O)cc1,> 30 µM (inactive)
2,CCC(C)/C=C(C)/C=C/C1=CC2=C(Cl)C(=O)C(C)(OC(C)=O)C(=O)C2=CO1 (stereo not given),> 30 µM (inactive)
3,C[C@H]1c2cccc(O)c2C(O)=C2C(=O)[C@]3(O)C(O)=C(C(N)=O)C(=O)[C@@H](N(C)C)C3[C@@H](O)C21 (stereo not given in full),> 30 µM (inactive)
4,C[C@H]1c2cccc(O)c2C(O)=C2C(=O)[C@]3(O)C(O)=C(C(N)=O)C(=O)[C@@H](N(C)C)[C@@H]3[C@@H](O)[C@@H]21,> 30 µM (inactive)
5,Cc1cc(/C=C2\C(=O)NC(=O)N(Cc3ccco3)C2=O)c(C)n1-c1ccc(C(=O)O)cc1,> 30 µM (inactive)
